Laboratory results taken from the NIST ThermoML archive (doi:10.1016/j.jct.2006.01.011).

Assays:
[1] = 293.15 K, 101.33 kPa, Liquid; for viscosity: Capillary tube (Ostwald / Ubbelohde) method
[2] = wn = mass fraction of the nth substance listed; conditions: 293.15 K, 101.33 kPa, Liquid; for viscosity: Capillary tube (Ostwald / Ubbelohde) method; for mass density: Vibrating tube method
[3] = refractive index (Na D-line) (dimensionless); conditions: 293.15 K; 101.33 kPa; Liquid; Standard Abbe refractometry
[4] = cn = amount concentration of the nth substance listed, in mol/dm3; conditions: 293.15 K, 101 kPa, Liquid; for viscosity: Capillary tube (Ostwald / Ubbelohde) method; for electrical conductivity: Frequency=0.001 MHz, digital bridge-type conductivity meter; for mass density: Vibrating tube method

O [water]
Conditions	viscosity [mPa·s]
[1]	1.008

O [water] + OCCO
Conditions	viscosity [mPa·s]
[2], w2 = 0	1.008

OCCO [1,2-ethanediol] + O
[2]
Conditions	mass density [kg/m3]	viscosity [mPa·s]
w1 = 0.1	1011.1	1.293
w1 = 0.2	1024.49	1.671
w1 = 0.3	–	2.177
w1 = 0.4	1049.89	2.837
w1 = 0.5	1062.42	3.558
w1 = 0.6	–	4.724
w1 = 0.7	1085.2	6.36
w1 = 0.8	1095.34	8.003
w1 = 0.9	1103.7	14

OCCO [1,2-ethanediol]
Conditions	refractive index	viscosity [mPa·s]
[1]	–	20.81
[3]	1.4319	–

Conditions	mass density [kg/m3]
[1], Vibrating tube method	1113.23

O=S(=O)([O-])[O-].[Zn+2] [zinc sulfate] + O
[4]
Conditions	electrical conductivity [S/m]	mass density [kg/m3]	viscosity [mPa·s]
c1 = 5e-05	0.00119	998.22	–
c1 = 0.00011	0.00229	998.23	–
c1 = 0.00019	0.00391	998.25	–
c1 = 0.00042	0.0084	998.29	–
c1 = 0.00063	0.01218	998.32	–
c1 = 0.00083	0.0154	998.36	–
c1 = 0.00101	0.01833	998.39	–
c1 = 0.00127	0.02201	998.41	–
c1 = 0.0084	–	999.63	1.015
c1 = 0.0194	–	1001.48	1.022
c1 = 0.0403	–	1004.95	1.036
c1 = 0.0545	–	1007.37	1.045
c1 = 0.0714	–	1009.43	1.054
c1 = 0.0795	–	1011.4	1.062
c1 = 0.0979	–	1014.39	1.074
c1 = 0.1391	–	1021.1	1.103
c1 = 0.1756	–	1027.12	1.127
c1 = 0.1998	–	1030.93	1.144
